Experimental data published in publication PMC6940986, “Structural Insights into the Intracellular Region of the Human Magnesium Transport Mediator CNNM4” (International Journal of Molecular Sciences, 2019).

Biological target: T1, hCNNM4BAT (CNNM4BAT) (Homo sapiens, UniProt Q6P4Q7)
T1 construct: gene CNNM4; Bateman module (CBS1-CBS2) with helix H0; for NMR U-15N, N-terminal His6-V5-TEV site tag (pET151-D/TOPO), tag cleavage not described; E. coli BL21 CodonPlus; homodimer (CBS module)
Assay: 2D […]-HSQC NMR titration; 1H STD NMR
Type: binding
Conditions: estimated; no Mg2+ added; 100 mM HEPES, pH 7.4 preset (7.2 in results), 100 mM NaCl, 298 K; 100 uM protein

T1 sequence (Q6P4Q7 359-511): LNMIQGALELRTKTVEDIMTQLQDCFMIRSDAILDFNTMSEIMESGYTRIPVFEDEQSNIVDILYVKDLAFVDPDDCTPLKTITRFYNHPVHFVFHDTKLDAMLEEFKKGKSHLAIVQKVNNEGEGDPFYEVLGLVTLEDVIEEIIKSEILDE

## Nc1ncnc2c1ncn2[C@@H]1O[C@H](COP(=O)(O)OP(=O)(O)NP(=O)(O)O)[C@@H](O)[C@H]1O [ADPNP]
  KD: ~ 10^−2 to 10^−3 M
